Measured values published in patent US20230365570A1, “COMPOUNDS WITH GLUCOCORTICOID SPARING EFFECTS AND USES THEREOF” (The Regents of the University of California, priority 2020, published 2023).

Legend:
Format in all cases: cell-based, human
THP-1 cells [1] = assay: CXCL8 production by LPS stimulated THP-1 cells (ELISA); conditions: LPS 10 ng/ml, purchased compound, mean LPS CXCL8 201.1 pg/ml = 100%
Procedure: (§1) THP-1 cells (10^5 cells/200 μL/well) and RA FLS (104/200 μL/well) were plated in 96 well plates and pre-treated with compound or vehicle for 1 h and then stimulated with either LPS (10 ng/ml), 1L-1ß (2 ng/ml) or TNF (2 ng/ml for THP-1 and 1 ng/ml for RA FLS). After 18 h of incubation, supernatants were collected and the levels of cytokines and chemokines in the culture supernatants were measured by ELISA according to the manufacturer's protocols (R&D systems, Minneapolis, MN).
The 122 hit compounds underwent additional screening and were evaluated for their effects on cell viability and the ability to suppress production of an NF-κB-associated chemokine, CXCL8 (IL-8) by LPS stimulated THP-1 cells (FIG. 2D). The cells were also examined for viability after 24 h of stimulation by MTT assay (FIG. 2E).
Three of the eleven chemotypes were excluded based on the potential for them to be Michael acceptors, In many cases α,β-unsaturated carbonyls such as those found in these chemotypes can form adducts with thiols, especially under physiological conditions (pH=6-8), reducing the in vivo efficacy. Also, Michael acceptors are often […] IKKß inhibitors and thereby inhibit NF-KB response. […]

THP-1 cells [2] = assay: Cell viability by MTT assay in THP-1 cells; conditions: purchased compound
Procedure: Two types of tetrazolium were used for viability assays. […] After 18 h of incubation, 0.5 mg/ml 3[4,5-dimethylthiazol-2-yl]-2,5-dipheyl tetrazolium bromide (MTT; Thermo Fisher Scientific) in assay media was added to each well at a final concentration of (0.5 mg/ml) and further incubated for 4-6 h. The absorbances at 570 and 650 nm were measured by a Tecan Infinite M200 plate reader, For RA FLS, the cells were dispersed into 96-well flat bottom plates (104/200 μL/well) and incubated overnight. The next day, RA FLS were treated with 5 μM of each compound for 18 h of incubation. Ten μl of WST-8 [2-(2-methoxy-4-nitrophenyl)-3-(4-nitrophenyl)-5-(2,4-disulfophewnyl)-2H-tetrazolium, monosodium salt] solution was added to each well and the cells were further incubated for 2-4 h. The absorbance was measured at 450 nm with Bio-Rad iMark plate reader (Bio-Rad Laboratories Inc., Hercules, CA, Unites States).

THP-1 cells [3] = assay: TNF stimulated CXCL8 release by THP-1 cells; conditions: TNF 2 ng/ml, overnight (FIG. 3B)
Procedure: as §1
The lead compounds belonging to chemotypes 1, 3, and 5 were tested for potency in suppressing chemokine and cytokine production by THP-1 cells in the presence of different inflammatory stimuli. The production of CXCL8 induced by either LPS (10 ng/ml), IL-1ß (2 ng/ml), or TNF (2 ng/ml) and TNF induced by IL-1ß (2 ng/ml) was assessed using serially diluted compounds. The compounds except 1-2 reduced the level of CXCL8 production stimulated by LPS in a dose dependent manner (FIG. 3A). However, the compounds from chemotype 5 enhanced CXCL8 release by THP-1 cells when stimulated with IL-111, or TNF (FIGS. 3B, C). […] The 1Cs0 for 1-1, 1-2 and 3-1 for IL-1ß stimulated CXCL8 release included 400, 1770, and 2020 nM, respectively, (FIG. 3C).

THP-1 cells [4] = assay: Combination and synergy of compounds with DEX, CXCL8 release by TNF stimulated THP-1 cells
Procedure: Drug synergy analysis was performed using lsobologram plots which were calculated according to reported procedures to compute IC50 and determine synergism. IC50 is computed from the median effect equation. Synergism analysis is carried out using the Combination index (Cl)-isobol method. Data analysis was performed using the CompuSyn software available on combisyn.com, Detailed methodology was used as described in a prior report. Briefly, the median-effect equation is computed to obtain the linear regression for the effect of inhibitors DEX and 1−1 as Fa/Fu=(D/D50)^m, where D is the dose; Fa and Fu is the fraction of the inhibition and uninhibited response by the dose D (Fa+Fu=1); D50 is the dose producing the median effect (i.e, IC50). The constant m determines the shape of the dose-effect curve. The median-effect equation in logarithmic form is log (Fa/Fu) =m log(D)−m log (D50) which essentially represents a linear relationship between log(Fa/Fu) and log(D). […] This is followed by Cl-isobol method to quantitatively assess the synergism between these inhibitor drugs. A combination index (Cl) is estimated from dose-effect data of single and combined drug treatments. A value of C; less than one indicates synergism; Cl=1 indicates additive effect; and Cl>1 indicates antagonism. Drug interaction (synergism or antagonism) is more pronounced the further a CI value is from 1. […] The doses Dx1 and Dx2 were estimated from the median effect equation above for single drug treatments. From the median effect equation, the estimated dose (i.e., D) necessary to produce the inhibition (i.e., Fa, Fu) obtained by the combination was calculated. The results are presented as a normalized isobolograrn. A point in the isobologram represents the effect of a drug(s) treatment.
To assess whether the remaining candidate compounds would provide additional benefit to a low dose of glucocorticoid, THP-1 cells were stimulated with TNF and treated them with serially diluted compounds and 100 nM DEX (FIGS. 4A-C). […] Next whether there was an additive or synergistic effect with these three compounds and DEX was formally addressed. […] The four CXCL8 levels below the maximum plateau were used to calculate an isobologram (FIG. 5D).

- IC50 (THP-1 cells [3]): 900 nM
- IC50 (THP-1 cells [4]; TNF stimulated THP-1 cells, single agents (FIG. 5A), read-out: IC50 for TNF stimulated CXCL8 release (titration with DEX)): 968 nM
SMILES: Cc1ccc(-n2ncc3c(NC4CCCCC4)ncnc32)c(C)c1 [Compound 1-1]
- CXCL8 production. Relative to LPS (purchased) (THP-1 cells [1]): 47.1%
- % Cellular Viability (Purchased) (THP-1 cells [2]): 98.7%
- Effect of addition of DEX on CXCL8 production (THP-1 cells [4]; TNF 2 ng/ml stimulated THP-1 cells, serially diluted compound plus 100 nM DEX (FIGS. 4A-C)): significantly reduced the CXCL8 production at all of the effective doses
- Synergy with DEX, isobologram of potency ratios for CXCL8 (THP-1 cells [4]; TNF stimulated THP-1 cells, compound and DEX titrated at same molarity (FIG. 5D)): demonstrating synergy
